Experimental data taken from US20130217664A1, “NOVEL COMPOUNDS USEFUL FOR THE TREATMENT OF DEGENERATIVE AND INFLAMMATORY DISEASES” (priority 2012, published 2013).

What was measured:
CTLL-2 cell line = test: CTLL2 viability assay; type: cell-based; conditions: Mus musculus, IL-2 dependent CTLL2 viability, 24 h, ATP-lite
Description: The protocol describes the methods to analyse the activity of compounds on their ability to sustain the IL2-dependent viability of CTLL2.
Final DMSO concentration was 0.1%.

[1] = test system: pSTAT1(2)-luciferase reporter in HeLa cells triggered with human OSM; test: JAK-STAT signalling assay; type: cell-based; conditions: Homo sapiens, HeLa, HeLa cells, pSTAT1(2)-luciferase reporter, human OSM 33 ng/mL; read-out: JAK-STAT IC50
Summary of the method: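 Compound added 60 min before 33 ng/mL (final) human OSM; after overnight stimulation at 37 °C, luciferase signal from a transiently transfected pSTAT1(2) reporter in HeLa cells was read, with LacZ as internal control. EC50 derived from percent-inhibition dose-response curves.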

human JAK3 = target: T1, human JAK3 (Homo sapiens, UniProt P52333); test: JAK3 inhibition assay; type: biochemical; conditions: recombinant human JAK3 catalytic domain; polyGT substrate
T1 construct: catalytic domain (amino acids 781-1124; catalog number PV3855); purchased Invitrogen PV3855
Summary of the method: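 Radiometric kinase assay: 0.5 ng JAK3 with 2.5 μg polyGT in Tris pH 7.5/MgCl2 buffer, 1 μM ATP plus 0.25 μCi 33P-γ-ATP, 1% DMSO, 45 min at 30 °C, stopped with phosphoric acid.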

human JAK2 = target: T2, human JAK2 (Homo sapiens, UniProt O60674); test: JAK2 inhibition assay (polyGT substrate / Ulight-JAK1 peptide); type: biochemical; conditions: recombinant human JAK2 catalytic domain; polyGT or Ulight-JAK1 peptide assay
T2 construct: catalytic domain (amino acids 808-1132; catalog number PV4210); GST; purchased Invitrogen PV4210
Summary of the method: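 Two JAK2 formats: a ^33P-ATP polyGT assay (1 μM cold ATP, 90 min, 30° C., cpm read-out) and a Ulight-JAK1 peptide assay read by Europium-anti-phosphotyrosine fluorescence after 60 min at room temperature.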

human TYK2 = target: T3, human TYK2 (Homo sapiens, UniProt P29597); test: TYK2 inhibition assay; type: biochemical; conditions: recombinant human TYK2 catalytic domain, polyGT substrate
T3 construct: catalytic domain (amino acids 871-1187; catalog number 08-147); purchased Carna Biosciences 08-147
T3 sequence (P29597 871-1187): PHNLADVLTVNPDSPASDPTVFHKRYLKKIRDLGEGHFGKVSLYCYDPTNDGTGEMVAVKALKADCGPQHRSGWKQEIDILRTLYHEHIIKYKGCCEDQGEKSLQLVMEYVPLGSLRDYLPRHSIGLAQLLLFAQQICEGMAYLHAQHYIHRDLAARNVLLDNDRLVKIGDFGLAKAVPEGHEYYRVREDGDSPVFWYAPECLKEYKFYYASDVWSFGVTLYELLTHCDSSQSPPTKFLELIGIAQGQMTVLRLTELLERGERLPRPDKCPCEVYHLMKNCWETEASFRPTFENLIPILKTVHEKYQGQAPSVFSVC
Summary of the method: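 Radiometric kinase reaction run 90 min at 30 °C, stopped with phosphoric acid, washed and scintillation-counted.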

human JAK1 = target: T4, human JAK1 (Homo sapiens, UniProt P23458); test: JAK1 inhibition assay (polyGT substrate / Ulight-JAK1 peptide); type: biochemical; conditions: recombinant human JAK1 catalytic domain; polyGT or Ulight-JAK1 peptide assay
T4 construct: catalytic domain, amino acids 866-1154; catalog number PV4774; purchased Invitrogen PV4774
Summary of the method: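 Signal scaled between vehicle and 10 μM staurosporine. Radiometric polyGT reactions ran 45 min at 30 °C, counted after phosphoric-acid stop. Ulight peptide reactions ran 60 min at room temperature, fluorescence read after adding Eu-PT66 detection mix with EDTA.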

T2 sequence (O60674 808-1132): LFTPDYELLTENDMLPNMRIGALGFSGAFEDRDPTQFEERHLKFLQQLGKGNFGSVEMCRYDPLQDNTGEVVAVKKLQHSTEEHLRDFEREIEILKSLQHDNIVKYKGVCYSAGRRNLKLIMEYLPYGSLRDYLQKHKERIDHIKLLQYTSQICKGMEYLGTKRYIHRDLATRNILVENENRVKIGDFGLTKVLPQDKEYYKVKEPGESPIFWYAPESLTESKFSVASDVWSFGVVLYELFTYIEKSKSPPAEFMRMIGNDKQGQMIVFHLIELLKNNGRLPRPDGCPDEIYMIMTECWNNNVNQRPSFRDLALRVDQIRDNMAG
T1 sequence (P52333 781-1124): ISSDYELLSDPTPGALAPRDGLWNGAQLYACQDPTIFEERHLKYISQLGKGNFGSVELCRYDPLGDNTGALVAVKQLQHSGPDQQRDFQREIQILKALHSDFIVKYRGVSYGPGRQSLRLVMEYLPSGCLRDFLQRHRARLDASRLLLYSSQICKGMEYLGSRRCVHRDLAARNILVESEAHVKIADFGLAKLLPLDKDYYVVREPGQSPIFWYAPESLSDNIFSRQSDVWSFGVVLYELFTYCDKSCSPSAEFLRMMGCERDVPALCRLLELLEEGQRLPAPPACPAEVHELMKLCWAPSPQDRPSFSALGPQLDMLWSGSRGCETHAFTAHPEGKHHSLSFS
T4 sequence (P23458 866-1154): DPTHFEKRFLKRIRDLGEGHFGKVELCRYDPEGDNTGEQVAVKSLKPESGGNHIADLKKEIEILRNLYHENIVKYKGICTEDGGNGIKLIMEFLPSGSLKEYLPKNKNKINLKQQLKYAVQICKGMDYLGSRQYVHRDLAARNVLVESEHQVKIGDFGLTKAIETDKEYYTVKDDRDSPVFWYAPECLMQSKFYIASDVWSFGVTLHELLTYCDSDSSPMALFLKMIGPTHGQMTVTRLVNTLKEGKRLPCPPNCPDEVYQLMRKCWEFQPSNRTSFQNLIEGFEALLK

Structure (SMILES)	IC50 (CTLL-2 cell line)	IC50 [1]	IC50 (human JAK3)	IC50 (human JAK2)	IC50 (human TYK2)	IC50 (human JAK1)
CCc1cc(C(N)=O)ccc1N(C)c1cc2c(cn1)ncn2C [Compound 137, 3-Ethyl-4-(methyl(1-methyl-1H-imidazo[4,5-c]pyridin-6-yl)amino)benzamide]	> 1000 nM	501 to 1000 nM	–	–	–	–
CCc1cc(C2CCCC2)ncc1N(C)c1cc2c(cn1)ncn2C [Compound 433, (6-Cyclopentyl-4-ethyl-pyridin-3-yl)-methyl-(1-methyl-1H-imidazo[4,5-c]pyridin-6-yl)-amine]	> 1000 nM	–	101 to 500 nM	0.01 to 100 nM	101 to 500 nM	0.01 to 100 nM
CCc1cc(C2CCC2)ncc1N(C)c1cc2c(cn1)ncn2C [Compound 434, (6-Cyclobutyl-4-ethyl-pyridin-3-yl)-methyl-(1-methyl-1H-imidazo[4,5-c]pyridin-6-yl)-amine]	> 1000 nM	–	> 1000 nM	101 to 500 nM	101 to 500 nM	0.01 to 100 nM
CCc1cc(C(C#N)N2CCC(C#N)CC2)ccc1N(C)c1cc2c(cn1)ncn2C (centres unmarked) [Compound 435, 1-(Cyano-{3-ethyl-4-[methyl-(1-methyl-1H-imidazo[4,5-c]pyridin-6-yl)-amino]-phenyl}-methyl)-piperidine-4-carbonitrile]	> 1000 nM	–	101 to 500 nM	0.01 to 100 nM	0.01 to 100 nM	0.01 to 100 nM
CCc1cc(C(C#N)N2CC(NC(=O)OC(C)(C)C)C2)ccc1N(C)c1cc2c(cn1)ncn2C (centres unmarked) [Compound 436, [1-(Cyano-{3-ethyl-4-[methyl-(1-methyl-1H-imidazo[4,5-c]pyridin-6-yl)-amino]-phenyl}-methyl)-azetidin-3-yl]-carbamic acid tert-butyl ester]	> 1000 nM	–	101 to 500 nM	0.01 to 100 nM	0.01 to 100 nM	0.01 to 100 nM
CCc1cc(C(C#N)N2CCC(CO)CC2)ccc1N(C)c1cc2c(cn1)ncn2C (centres unmarked) [Compound 437, {3-Ethyl-4-[methyl-(1-methyl-1H-imidazo[4,5-c]pyridin-6-yl)-amino]-phenyl}-(4-hydroxymethyl-piperidin-1-yl)-acetonitrile]	> 1000 nM	–	101 to 500 nM	0.01 to 100 nM	0.01 to 100 nM	0.01 to 100 nM
CCc1cc(C(C#N)N2CC[C@@H](F)C2)ccc1N(C)c1cc2c(cn1)ncn2C (stereo partly drawn) [Compound 438, {3-Ethyl-4-[methyl-(1-methyl-1H-imidazo[4,5-c]pyridin-6-yl)-amino]-phenyl}-((R)-3-fluoro-pyrrolidin-1-yl)-acetonitrile]	> 1000 nM	–	101 to 500 nM	0.01 to 100 nM	0.01 to 100 nM	0.01 to 100 nM
CCc1cc(C(C#N)N2CCC[C@@H]2COC)ccc1N(C)c1cc2c(cn1)ncn2C (stereo partly drawn) [Compound 439, {3-Ethyl-4-[methyl-(1-methyl-1H-imidazo[4,5-c]pyridin-6-yl)-amino]-phenyl}-((R)-2-methoxymethyl-pyrrolidin-1-yl)-acetonitrile]	> 1000 nM	–	501 to 1000 nM	101 to 500 nM	0.01 to 100 nM	0.01 to 100 nM
CCc1cc(C(C#N)N2CC(F)(F)C2)ccc1N(C)c1cc2c(cn1)ncn2C (centres unmarked) [Compound 440, (3,3-Difluoro-azetidin-1-yl)-{3-ethyl-4-[methyl-(1-methyl-1H-imidazo[4,5-c]pyridin-6-yl)-amino]-phenyl}-acetonitrile]	> 1000 nM	–	101 to 500 nM	0.01 to 100 nM	0.01 to 100 nM	0.01 to 100 nM
CCc1cc(C(C#N)N2CCC(F)(F)C2)ccc1N(C)c1cc2c(cn1)ncn2C (centres unmarked) [Compound 441, (3,3-Difluoro-pyrrolidin-1-yl)-{3-ethyl-4-[methyl-(1-methyl-1H-imidazol[4,5-d]pyridin-6-yl)-amino]-phenyl}-acetonitrile]	> 1000 nM	–	101 to 500 nM	0.01 to 100 nM	0.01 to 100 nM	0.01 to 100 nM
CCc1cc(C(C#N)N2CCC(C#N)C2)ccc1N(C)c1cc2c(cn1)ncn2C (centres unmarked) [Compound 445, 1-(Cyano-{3-ethyl-4-[methyl-(1-methyl-1H-imidazo[4,5-c]pyridin-6-yl)-amino]-phenyl}-methyl)-pyrrolidine-3-carbonitrile]	> 1000 nM	–	101 to 500 nM	0.01 to 100 nM	0.01 to 100 nM	0.01 to 100 nM
CCc1cc(C(C#N)N2CC(C)(C)C2)ccc1N(C)c1cc2c(cn1)ncn2C (centres unmarked) [Compound 446, (3,3-Dimethyl-azetidin-1-yl)-{3-ethyl-4-[methyl-(1-methyl-1H-imidazo[4,5-c]pyridin-6-yl)-amino]-phenyl}-acetonitrile]	> 1000 nM	–	501 to 1000 nM	0.01 to 100 nM	0.01 to 100 nM	0.01 to 100 nM
CCc1cc(C(C#N)N2CCC(O)CC2)ccc1N(C)c1cc2c(cn1)ncn2C (centres unmarked) [Compound 447, {3-Ethyl-4-[methyl-(1-methyl-1H-imidazo[4,5-c]pyridin-6-yl)-amino]-phenyl}-(4-hydroxy-piperidin-1-yl)-acetonitrile]	> 1000 nM	–	101 to 500 nM	0.01 to 100 nM	0.01 to 100 nM	0.01 to 100 nM
CCc1cc(C(C#N)N2CC[C@@H](OC)C2)ccc1N(C)c1cc2c(cn1)ncn2C (stereo partly drawn) [Compound 448, {3-Ethyl-4-[methyl-(1-methyl-1H-imidazo[4,5-c]pyridin-6-yl)-amino]-phenyl}-((R)-3-methoxy-pyrrolidin-1-yl)-acetonitrile]	> 1000 nM	–	101 to 500 nM	0.01 to 100 nM	0.01 to 100 nM	0.01 to 100 nM
CCc1cc(C(C#N)N2CCN(C)CC2)ccc1N(C)c1cc2c(cn1)ncn2C (centres unmarked) [Compound 449, {3-Ethyl-4-[methyl-(1-methyl-1H-imidazo[4,5-c]pyridin-6-yl)-amino]-phenyl}-(4-methyl-piperazin-1-yl)-acetonitrile]	> 1000 nM	–	> 1000 nM	101 to 500 nM	0.01 to 100 nM	0.01 to 100 nM
CCc1cc(C(C#N)N2CC(O)C2)ccc1N(C)c1cc2c(cn1)ncn2C (centres unmarked) [Compound 450, {3-Ethyl-4-[methyl-(1-methyl-1H-imidazo[4,5-c]pyridin-6-yl)-amino]-phenyl}-(3-hydroxy-azetidin-1-yl)-acetonitrile]	> 1000 nM	–	101 to 500 nM	0.01 to 100 nM	0.01 to 100 nM	0.01 to 100 nM
CCc1cc(C(C#N)N2CCC(C(N)=O)CC2)ccc1N(C)c1cc2c(cn1)ncn2C (centres unmarked) [Compound 451, 1-(Cyano-{3-ethyl-4-[methyl-(1-methyl-1H-imidazo[4,5-c]pyridin-6-yl)-amino]-phenyl}-methyl)-piperidine-4-carboxylic acid amide]	> 1000 nM	–	101 to 500 nM	0.01 to 100 nM	0.01 to 100 nM	0.01 to 100 nM
CCc1cc(C(C#N)N2CCC(S(C)(=O)=O)CC2)ccc1N(C)c1cc2c(cn1)ncn2C (centres unmarked) [Compound 452, {3-Ethyl-4-[methyl-(1-methyl-1H-imidazo[4,5-c]pyridin-6-yl)-amino]-phenyl}-(4-methanesulfonyl-piperidin-1-yl)-acetonitrile]	501 to 1000 nM	–	0.01 to 100 nM	0.01 to 100 nM	0.01 to 100 nM	0.01 to 100 nM
CCOC(=O)C1CN(C(C#N)c2ccc(N(C)c3cc4c(cn3)ncn4C)c(CC)c2)C1 (centres unmarked) [Compound 453, 1-(Cyano-{3-ethyl-4-[methyl-(1-methyl-1H-imidazo[4,5-c]pyridin-6-yl)-amino]-phenyl}-methyl)-azetidine-3-carboxylic acid ethyl ester]	> 1000 nM	–	501 to 1000 nM	0.01 to 100 nM	0.01 to 100 nM	0.01 to 100 nM
